Among the test systems are Enterococcus faecalis; Enterococcus gallinarum; Raoultella terrigena; Pseudomonas aeruginosa; Acinetobacter baumannii; Staphylococcus capitis 1; Bacillus megaterium Bm11.
Test in all cases: ≥ marks a high value that may be exact or a test limit, other limits are often not marked, values filed in µg/mL are converted to µM
The subject of experiment [1] is Salmonella typhimurium KCTC 1926.
Experiment [2] relates to Trichosporon beigelii KCTC 7251.
Experiment [3] concerns Pseudomonas aeruginosa KCTC 1637.
Experiment [4] relates to Aspergillus flavus KCTC 7375.
Experiment [5] deals with Fusarium oxysporum KCTC 6084.
Experiment [6] deals with Escherichia coli KCTC 1682.
The subject of experiment [7] is Staphylococcus aureus KCTC 1621.
In experiment [8] the test system is Bacillus subtilis KCTC 3068.
The subject of experiment [9] is Candida albicans KCTC 7121.
For experiment [10], the system named is Streptococcus pyogenes KCTC 3096.
Experiment [11] has as its system Serratia marcescens KCTC 1299.
The subject of experiment [12] is Staphylococcus aureus Cowan 1.
Experiment [13] has as its system Yersinia pseudotuberculosis YPIII.
The subject of experiment [14] is Escherichia coli ATCC 25922.
Experiment [15] concerns Candida albicans ATCC 10231.
The test system of experiment [16] is Acinetobacter baumannii NM8.
Experiment [17] has as its system Klebsiella pneumoniae ATCC 700603.
Experiment [18] has as its system Escherichia coli ATCC 25726.
The subject of experiment [19] is Staphylococcus epidermidis RP62A.
The subject of experiment [20] is Candida albicans ATCC 90028.
Experiment [21] deals with Staphylococcus aureus ATCC 25923.
The test system of experiment [22] is Staphylococcus epidermidis T6/19.
The test system of experiment [23] is Stenotrophomonas maltophilia B32/1.
Experiment [24] concerns Pseudomonas aeruginosa ATCC 27853.
The subject of experiment [25] is Stenotrophomonas maltophilia B5/5.
In experiment [26] the test system is Staphylococcus epidermidis RP62A/1.
Experiment [27] has as its system Staphylococcus aureus 127/08.
Experiment [28] relates to Enterococcus faecalis ATCC 29212.
Experiment [29] has as its system Staphylococcus aureus 145/08.
In experiment [30] the test system is Acinetobacter baumannii NM35.
The subject of experiment [31] is Stenotrophomonas maltophilia B32/4.
Experiment [32] deals with Acinetobacter baumannii NM124.

Each structure is given as a SMILES string. ≈ marks a conversion by molar mass, not a printed value. Bounds are passed on as bounds.

Take `CSCC[C@H](NC(=O)[C@H](C)NC(C)=O)C(=O)N[C@H](C(=O)N[C@@H](CO)C(=O)N[C@@H](CO)C(=O)O)C(C)C` [AMVSS]: the MIC against Enterococcus faecalis is at least 46.2 µM; against Enterococcus gallinarum, 23.1 µM (≈ 12.4 µg/mL); in the experiment on Raoultella terrigena, 23.1 µM (≈ 12.4 µg/mL); in the experiment with Pseudomonas aeruginosa, 23.1 µM (≈ 12.4 µg/mL); with Acinetobacter baumannii it was 23.1 µM (≈ 12.4 µg/mL).

Regarding `CC[C@H](C)[C@H](NC(=O)[C@@H]1CCCN1C(=O)[C@H](CCCCN)NC(=O)[C@H](Cc1ccccc1)NC(=O)[C@H](CC(C)C)NC(=O)[C@H](Cc1cnc[nH]1)NC(=O)[C@H](CC(C)C)NC(=O)[C@H](C)NC(=O)[C@H](CCCCN)NC(=O)[C@H](CCCCN)NC(=O)[C@@H](N)Cc1ccccc1)C(=O)N[C@@H](CCCCN)C(=O)N[C@@H](CCCCN)C(=O)N[C@@H](Cc1ccccc1)C(=O)N[C@@H](CC(C)C)C(=O)N[C@@H](CCCCN)C(=O)N[C@@H](Cc1c[nH]c2ccccc12)C(=O)N[C@@H](CCCCN)C(N)=O` [FKKALHLFKPIKKFLKWK], the MIC in [1] is 3.13 µM (≈ 7.2 µg/mL); in experiment [2], 25 µM (≈ 57.5 µg/mL); in experiment [3] it was 1.56 µM (≈ 3.59 µg/mL); in experiment [4] it was at least 50 µM; in experiment [5] it was at least 50 µM; in experiment [6], 6.25 µM (≈ 14.4 µg/mL). The minimal inhibitory concentration (MIC) in [7] was 1.56 µM (≈ 3.59 µg/mL); in [8], 0.78 µM (≈ 1.79 µg/mL); in experiment [9], at least 50 µM; in [10] it was 6.25 µM (≈ 14.4 µg/mL); in experiment [11] it was 6.25 µM (≈ 14.4 µg/mL).

`CC[C@H](C)[C@H](NC(=O)CNC(=O)[C@H](CO)NC(=O)[C@H](C)NC(=O)[C@@H](NC(=O)[C@H](CCCN=C(N)N)NC(=O)CNC(=O)[C@@H](NC(=O)[C@H](CC(C)C)NC(=O)[C@@H]1CCCN1C(=O)[C@H](CC(C)C)NC(=O)[C@@H](N)Cc1ccccc1)[C@@H](C)CC)C(C)C)C(=O)N[C@@H](CC(C)C)C(N)=O` [FLPLIGRVASGIL]: the minimum inhibitory concentration (MIC) against Staphylococcus capitis 1 was at least 40 µM; in [12] it was at least 40 µM; against Bacillus megaterium Bm11, at least 40 µM; in [13] it was at least 40 µM; in experiment [14], over 40 µM; in experiment [15], over 40 µM.

For the molecule `CC[C@H](C)[C@H](N)C(=O)N[C@@H](CCCCN)C(=O)N[C@H](C(=O)N1CCC[C@H]1C(=O)N[C@@H](CO)C(=O)N[C@@H](Cc1ccccc1)C(=O)N[C@@H](Cc1ccccc1)C(=O)N[C@@H](CCCN=C(N)N)C(=O)N[C@@H](CC(N)=O)C(=O)N[C@H](C(=O)N[C@@H](CC(C)C)C(=O)N[C@@H](CCCCN)C(=O)N[C@@H](CCCCN)C(=O)N[C@H](C(=O)NCC(=O)N[C@@H](CCCCN)C(=O)N[C@@H](CCC(=O)O)C(=O)N[C@@H](C)C(=O)N[C@H](C(=O)N[C@@H](CO)C(=O)N[C@@H](CC(C)C)C(=O)N[C@H](C(=O)N[C@@H](C)C(=O)NCC(=O)N[C@@H](C)C(=O)N[C@@H](CC(C)C)C(=O)N[C@@H](CCCCN)C(=O)N[C@@H](CCC(N)=O)C(=O)N[C@@H](CO)C(=O)O)[C@@H](C)CC)C(C)C)C(C)C)[C@@H](C)CC)[C@@H](C)CC` [IKIPSFFRNILKKVGKEAVSLIAGALKQS], the MIC is 10 µM (≈ 31.6 µg/mL) in experiment [16]; 20 µM (≈ 63.1 µg/mL) in experiment [17]; 10 µM (≈ 31.6 µg/mL) in [18]; 2.5 µM (≈ 7.89 µg/mL) in experiment [19]; at least 80 µM in [20]; 7.07 µM (≈ 22.3 µg/mL) in experiment [21]. The MIC stood at 2.5 µM (≈ 7.89 µg/mL) in [22]; 5 µM (≈ 15.8 µg/mL) in experiment [23]; 20 µM (≈ 63.1 µg/mL) in [24]; 10 µM (≈ 31.6 µg/mL) in [25]; 1.25 µM (≈ 3.95 µg/mL) in experiment [26]; 5 µM (≈ 15.8 µg/mL) in [27]. Further, the MIC came out at 10 µM (≈ 31.6 µg/mL) in [28], 10 µM (≈ 31.6 µg/mL) in experiment [29] and 5 µM (≈ 15.8 µg/mL) in experiment [30].

For the molecule `CC[C@H](C)[C@@H]1NC(=O)[C@H](CCCCN)NC(=O)[C@@H](NC(=O)[C@H](C)NC(=O)[C@@H](NC(=O)[C@H](CC(C)C)NC(=O)[C@H](CC(=O)O)NC(=O)[C@@H](NC(=O)CNC(=O)[C@H](CC(C)C)NC(=O)[C@H](CCCCN)NC(=O)[C@H](C)NC(=O)[C@H](CC(C)C)NC(=O)[C@H](CC(=O)O)NC(=O)[C@H](CCCCN)NC(=O)CNC(=O)[C@H](CC(C)C)NC(=O)CNC(=O)[C@H](CCCCN)NC(=O)[C@H](CO)NC(=O)[C@H](C)NC(=O)[C@H](Cc2ccccc2)NC(=O)[C@@H](N)CCCCN)C(C)C)C(C)C)CSSC[C@@H](C(=O)O)NC(=O)[C@H](CCC(N)=O)NC(=O)[C@H](CCCCN)NC(=O)[C@H](CO)NC1=O` [KFASKGLGKDLAKLGVDLVACKISKQC], the MIC is at least 200 µM in experiment [16]; at least 50 µM in experiment [31]; at least 200 µM in [18]; over 200 µM in [21]; at least 100 µM in experiment [23]; at least 100 µM in [32]. This molecule displayed a minimum inhibitory concentration (MIC) in experiment [27] of at least 200 µM.

By MIC is commonly meant the least concentration at which growth counts as inhibited.
